# From publication PMC12531613, “Synthesis and Biological Evaluation of Novel 2‐(Piperidin‐4‐yl)‐1,2,3,4‐tetrahydroisoquinoline and 2‐(Piperidin‐4‐yl)decahydroisoquinoline Antimycotics” (Archiv Der Pharmazie, 2025)
# Where two headings read alike, the source gives them in different places.
# Tests used:
# Type in all cases: cell-based
# Yarrowia lipolytica = assay: MIC100 microdilution assay against Yarrowia lipolytica
# Protocol: In previous research we found a good correlation between MIC values against Yarrowia lipolytica and pathogenic Candida species.
# Determination of MICs against Yarrowia lipolytica (DSMZ, Braunschweig, Germany) was carried out according to lit. Yarrowia lipolytica was cultivated in AC‐agar (Sigma Aldrich). Concentration of yeast cells was determined by photometer and adjusted to a turbidity of 0.5 according to McFarland standard at 600 nm. All substances were dissolved in DMSO or methanol.
# Determination of MICs (minimal inhibitory concentration) against Yarrowia lipolytica was carried out according to Lit.^[13] Concentration of yeast cells was determined by photometer and adjusted to a turbitity of 0.5 according to McFarland Standard.
# C. krusei = assay: MIC90 microdilution (EUCAST), C. krusei; settings: Pichia kudriavzevii, 24 h
# Protocol: (§1) Determination of MICs (minimal inhibitory concentration) against Candida species was carried out according to the European Committee of Antifungal Susceptibility Testing. Concentration of yeast cells was determined by photometer and adjusted to a turbidity of 0.5 according to McFarland standard. MIC90 was determined by microdilution plate reader (Sunrise Tecan) at 450 nm, after 24 h incubation at 37°C. MIC90 was defined as the minimal concentration of chemical causing 90% growth inhibition, respectively. Growth inhibition of molds was determined by eye and microscopically, following EUCAST guidelines. All substances were dissolved in DMSO and diluted in RPMI 1640 medium, containing 2% glucose. All assays were carried out twice.
# C. glabrata = assay: MIC90 microdilution (EUCAST), C. glabrata; settings: Nakaseomyces glabratus, 24 h
# Protocol: as §1
# A. fumigatus (A65) = assay: MIC90 growth inhibition of molds (EUCAST), A. fumigatus (A65); settings: Aspergillus fumigatus, RPMI 1640, 2% glucose, read by eye and microscopically
# Protocol: Determination of MICs (minimal inhibitory concentration) against Candida species was carried out according to the European Committee of Antifungal Susceptibility Testing. Concentration of yeast cells was determined by photometer and adjusted to a turbidity of 0.5 according to McFarland standard. […] Growth inhibition of molds was determined by eye and microscopically, following EUCAST guidelines. […] All assays were carried out twice.
# C. albicans = assay: MIC90 microdilution (EUCAST), C. albicans; settings: Candida albicans, 24 h
# Protocol: as §1
# R. microsporus = assay: MIC90 growth inhibition of molds (EUCAST), R. microsporus; settings: Rhizopus microsporus
# Protocol: as §1
# A. fumigatus (R16) = assay: MIC90 growth inhibition of molds (EUCAST), A. fumigatus (R16); settings: Aspergillus fumigatus
# Protocol: as §1
# A. fumigatus (R7) = assay: MIC90 growth inhibition of molds (EUCAST), A. fumigatus (R7); settings: Aspergillus fumigatus
# Protocol: as §1
# R. arrhizus (oryzae) = assay: MIC90 growth inhibition of molds (EUCAST), R. arrhizus (oryzae); settings: Rhizopus arrhizus
# Protocol: as §1
# [1] = MTT cytotoxicity assay against HL 60 cells; settings: human
# Protocol: The cytotoxicity of the active compounds was checked in an MTT assay against human HL 60 cells. […] Although, this corresponds to the MIC range that would be needed in treatment, the values are within the range observed for commonly used antimycotics such as amorolfine and posaconazole. All active compounds were evaluated for their biopharmaceutical behavior and drug‐likeness using the online program SwissADME [26] and should show oral bioavailability according to the Lipinski rules of five.
# HL‐60 cells (human leukemia cells, DSM No. ACC3) were obtained from DSMZ (German Collection of Microorganisms and Cell Cultures, Braunschweig, Germany) and cultivated in RPMI 1640 medium with 10% fetal bovine serum (FBS), both from PAA Laboratories, Cölbe, Germany) without the addition of antibiotics at 37°C in a humidified atmosphere containing 5% CO2. The assay was performed according to lit.
# [2] = 48 h, read-out: Biological Activity MIC Yarrowia lipolytica
# [3] = microdilution, 48 h, 25°C, 600 nm, read-out: MIC100
# [4] = C. krusei, RPMI 1640, 2% glucose, 37°C, duplicate, read-out: MIC90
# [5] = C. glabrata, RPMI 1640, 2% glucose, 37°C, duplicate, read-out: MIC90
# [6] = C. albicans, RPMI 1640, 2% glucose, 37°C, duplicate, read-out: MIC90
# [7] = R. microsporus, RPMI 1640, 2% glucose, read by eye and microscopically, read-out: MIC90
# [8] = A. fumigatus (R16), RPMI 1640, 2% glucose, read by eye and microscopically, read-out: MIC90
# [9] = A. fumigatus (R7), RPMI 1640, 2% glucose, read by eye and microscopically, read-out: MIC90
# [10] = R. arrhizus (oryzae), RPMI 1640, 2% glucose, read by eye and microscopically, read-out: MIC90
# [11] = supplement table, MIC100, 48 h, 25°C, 600 nm, read-out: Biological Activity MIC Yarrowia lipolytica
compound,measurement,setting,value
"CC(C)(C)OC(=O)N1CCC(N2CCC3CCCCC3C2)CC1 (centres unmarked) [3c, tert‐Butyl 4‐(octahydroisoquinolin‐2(1H)‐yl)piperidine‐1‐carboxylate]",MIC,Yarrowia lipolytica; [2],> 100 µg/mL
same,MIC,"Yarrowia lipolytica; 48 h, read-out: MIC100",> 100 µg/mL
"c1ccc(CN2CCC(N3CCC4CCCCC4C3)CC2)cc1 (centres unmarked) [7c, 2‐(1‐Benzylpiperidin‐4‐yl)decahydroisoquinoline]",MIC,Yarrowia lipolytica; [2],> 100 µg/mL
same,MIC,"Yarrowia lipolytica; 48 h, read-out: MIC100",> 100 µg/mL
"COc1cc2c(cc1OC)CN(C1CCNCC1)CC2 [4b, 6,7‐Dimethoxy‐2‐(piperidin‐4‐yl)‐1,2,3,4‐tetrahydroisoquinoline]",MIC,Yarrowia lipolytica; [2],> 100 µg/mL
same,MIC,"Yarrowia lipolytica; 48 h, read-out: MIC100",> 100 µg/mL
"Clc1ccccc1C(c1ccccc1)(c1ccccc1)n1ccnc1 [Clotrimazole, reference compound]",MIC,Yarrowia lipolytica; [3],0.4 µg/mL
same,MIC,"Yarrowia lipolytica; microdilution, same value given in µM, read-out: MIC100 (molar value in brackets)",1.2 µM
"OC(Cn1cncn1)(Cn1cncn1)c1ccc(F)cc1F [FLZ, fluconazole, reference compound]",MIC90,C. krusei; [4],8 µg/mL
same,MIC90,C. glabrata; [5],16 µg/mL
same,MIC90,A. fumigatus (A65),32 µg/mL
same,MIC90,C. albicans; [6],0.25 µg/mL
same,MIC90,R. microsporus; [7],> 32 µg/mL
same,MIC90,A. fumigatus (R16); [8],> 32 µg/mL
same,MIC90,A. fumigatus (R7); [9],16 µg/mL
same,MIC90,R. arrhizus (oryzae); [10],> 32 µg/mL
"c1ccc(CN2CCC(N3CCc4ccccc4C3)CC2)cc1 [7a, 2‐(1‐Benzylpiperidin‐4‐yl)‐1,2,3,4‐tetrahydroisoquinoline]",MIC90,C. krusei,> 32 µg/mL
same,MIC90,C. glabrata,> 32 µg/mL
same,MIC90,A. fumigatus (A65),> 32 µg/mL
same,MIC,Yarrowia lipolytica; [2],> 100 µg/mL
same,MIC,"Yarrowia lipolytica; 48 h, read-out: MIC100",> 100 µg/mL
same,MIC90,C. albicans,> 32 µg/mL
same,MIC90,R. microsporus,> 32 µg/mL
same,MIC90,A. fumigatus (R16),> 32 µg/mL
same,MIC90,A. fumigatus (R7),> 32 µg/mL
same,MIC90,R. arrhizus (oryzae),> 32 µg/mL
"CCCCN1CCC(N2CCC3CCCCC3C2)CC1 (racemic) [6g, (±)‐2‐(1‐Butylpiperidin‐4‐yl)‐decahydroisoquinoline]",MIC90,C. krusei; [4],> 32 µg/mL
same,MIC90,C. glabrata; [5],> 32 µg/mL
same,MIC90,A. fumigatus (A65),> 32 µg/mL
same,MIC,Yarrowia lipolytica; [3],> 100 µg/mL
same,MIC,Yarrowia lipolytica; [11],> 100 µg/mL
same,MIC90,C. albicans; [6],> 32 µg/mL
same,MIC90,R. microsporus; [7],> 32 µg/mL
same,MIC90,A. fumigatus (R16); [8],> 32 µg/mL
same,MIC90,A. fumigatus (R7); [9],> 32 µg/mL
same,MIC90,R. arrhizus (oryzae); [10],> 32 µg/mL
same,IC50,[1],> 100 µg/mL
"CCCCCCCC(=O)N1CCC(N2CCC3CCCCC3C2)CC1 (racemic) [5h, (±)‐1‐[4‐(Octahydroisoquinolin‐2(1H)‐yl)piperidin‐1‐yl]octan‐1‐one]",MIC,Yarrowia lipolytica; [2],> 100 µg/mL
same,MIC,"Yarrowia lipolytica; 48 h, read-out: MIC100",> 100 µg/mL
"CCCCCCCC(=O)N1CCC(N2CCc3ccccc3C2)CC1 [5b, 1‐[4‐(3,4‐Dihydroisoquinolin‐2(1H)‐yl)piperidin‐1‐yl]octan‐1‐one]",MIC,Yarrowia lipolytica; [2],> 100 µg/mL
same,MIC,"Yarrowia lipolytica; 48 h, read-out: MIC100",> 100 µg/mL
"CCCC(=O)N1CCC(N2CCc3cc(OC)c(OC)cc3C2)CC1 [5d, 1‐[4‐(6,7‐Dimethoxy‐3,4‐dihydroisoquinolin‐2(1H)‐yl)‐piperidin‐1‐yl]butan‐1‐one]",MIC,Yarrowia lipolytica; [2],> 100 µg/mL
same,MIC,"Yarrowia lipolytica; 48 h, read-out: MIC100",> 100 µg/mL
"CC(C)(C)OC(=O)N1CCC(N2CCc3ccccc3C2)CC1 [3a, tert‐Butyl 4‐(3,4‐dihydroisoquinolin‐2(1H)‐yl)piperidine‐1‐carboxylate]",MIC,Yarrowia lipolytica; [2],> 100 µg/mL
same,MIC,"Yarrowia lipolytica; 48 h, read-out: MIC100",> 100 µg/mL
"C1CC[C@H]2CN(C3CCNCC3)CC[C@@H]2C1 (racemic) [4c, (±)‐2‐(Piperidin‐4‐yl)decahydroisoquinoline]",MIC,Yarrowia lipolytica; [3],> 100 µg/mL
same,MIC,Yarrowia lipolytica; [11],> 100 µg/mL
